Measured values reported in PMC7733455, “A novel multistage antiplasmodial inhibitor targeting Plasmodium falciparum histone deacetylase 1” (Cell Discovery, 2020).
Where two headings read alike, the source gives them in different places.

Assays:
P. falciparum 3D7 = experiment: 3-day SYBR Green I growth inhibition assay (GIA), strain 3D7; type: cell-based, Plasmodium falciparum; details: Plasmodium falciparum, 3D7, 72 h, read-out: Antiplasmodial activity EC50, 3D7
Method: (§1) A 3-day SYBR Green I inhibition EC50 assay was performed as described previously. Briefly, highly synchronized ring-stage parasites by 5% sorbitol (1% parasitemia and 2% hematocrit) were incubated in a 96-well plate with compounds in a total volume of 200 μL. […] The parasites were cultured for 72 h before SYBR Green I staining as described above. The EC50 was calculated by GraphPad Prism. DHA was used as a positive control, and the final concentration of DMSO was 1%.

P. falciparum Dd2 = experiment: 3-day SYBR Green I GIA, multidrug-resistant strain Dd2; type: cell-based, Plasmodium falciparum
Method: as §1

[1] = In vitro cytotoxicity analysis (CellTiter-Glo), HepG2; details: human, HepG2 cells
Method: (§2) In all, 1% DMSO was used as a negative control. The inhibition of each drug was normalized to that of the DMSO control. EC50 was calculated by GraphPad Prism. Three independent assays with two technical replicates each time were conducted in this experiment.

HepG2 cells = experiment: as above; details: read-out: Cytotoxicity EC50, HepG2; 72 h, CellTiter-Glo
Method: as §2

[2] = In vitro cytotoxicity analysis (CellTiter-Glo), 293T; details: human, 293T cells, Cytotoxicity EC50, 293T, 72 h, CellTiter-Glo
Method: as §2

293T cells = experiment: as above; details: read-out: Cytotoxicity EC50, 293T; 72 h, CellTiter-Glo
Method: as §2

[3] = Liver microsome metabolism assay, mouse; type: in vitro ADME
Method: Liver microsomes (0.5 mg/mL) were purchased from Corning. Ketanserin was selected as a positive control. The tested compounds were first dissolved in DMSO to a concentration of 10 mM and then diluted to 0.5 mM with acetonitrile. Liver microsome buffer was used to dilute the compounds to a working concentration of 1.5 µM, 30 µL of which was mixed with 15 µL of 6 mM NADPH at 37 °C. At 0, 5, 15, 30, and 45 min after incubation, 135 µL of acetonitrile was added to quench the reaction. The mixture was shaken on a vortex mixer (IKA, MTS 2/4) for 10 min at 600 rpm/min and then centrifuged at 5594× g for 15 min (Thermo Multifuge×3R). The supernatant was diluted 1:1 into distilled water, and analyzed by LC-MS/MS.

[4] = Pharmacokinetic assay in mice; type: in vivo, BALB/c mice; details: 5 mg/kg i.p.
Method: Five female BALB/c mice (6–8 weeks, 18–19 g) per group were purchased from JH Laboratory Animal Co., Ltd. All mice were raised at controlled temperature and humidity and had free access to food and water. Compounds were dissolved in 5% DMSO and diluted with 20% aqueous 2-hydroxypropyl-β-cyclodextrin solution to a stock concentration of 0.5 mg/mL. Each mouse was i.p. injected with the compound solution at a dose of 5 mg/kg. Blood samples collected by anticoagulant (K2EDTA)-containing tubes at 0.25, 0.5, 1, 2, 4, 8, and 24 h after injection were centrifuged at 2000× g at 4 °C for 5 min to obtain plasma. LC-MS/MS analysis of samples was carried out by an ACQUITY UPLC HSS T3 1.8-μm column. The mobile phase was a mixture of phase A (0.1% formic acid in water) and phase B (0.1% formic acid in acetonitrile), which ran in gradient mode at a flow rate of 0.6 mL/min at 60 °C. Mass spectra were obtained on an API6500 triple quadrupole equipped with an ESI source. Propranolol was used as an internal standard. The plasma concentrations of the compounds were analyzed, and the pharmacokinetic parameters were calculated via WinNonlin.

hSirt2 = target: T1, hSirt2 (Homo sapiens, UniProt Q8IXJ6); experiment: Human HDAC inhibition assay, hSirt2; type: biochemical; details: performed only once; read-out: Inhibitory Activity IC50, hSirt2
T1 construct: purchased BPS Bioscience 50013
T1 sequence (Q8IXJ6 whole entry): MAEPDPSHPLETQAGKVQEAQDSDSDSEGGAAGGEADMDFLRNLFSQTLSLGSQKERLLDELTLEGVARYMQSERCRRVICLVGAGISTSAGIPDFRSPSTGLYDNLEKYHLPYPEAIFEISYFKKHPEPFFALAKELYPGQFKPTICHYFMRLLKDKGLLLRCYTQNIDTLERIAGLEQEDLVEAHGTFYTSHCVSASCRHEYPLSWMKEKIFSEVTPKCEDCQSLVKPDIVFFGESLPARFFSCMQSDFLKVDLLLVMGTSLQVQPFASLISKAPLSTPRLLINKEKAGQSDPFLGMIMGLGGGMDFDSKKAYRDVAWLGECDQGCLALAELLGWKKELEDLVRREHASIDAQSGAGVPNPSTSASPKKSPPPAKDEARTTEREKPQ
Method: SAHA and suramin were used as positive controls. The tested compounds were dissolved into 20 mM stock in 100% DMSO. […] Ten microliters of trypsin and Ac-peptide substrate/Tris buffer solution were added to start the reaction, followed by a 1-h incubation at room temperature for HDACs 1–3 and 6. Ten microliters of Ac-peptide substrate/Tris buffer solution was added to start the reaction, followed by a 4-h incubation at room temperature and a further 2-h incubation with trypsin solution for HDAC8 and Sirt 2. […] This experiment was performed only once.

[5] = test system: parasite histone H3 acetylation; experiment: Western blot of histone H3 acetylation in parasites; type: cell-based, Plasmodium falciparum; details: 4 h treatment of asynchronous 3D7; quisinostat/JX21108 5 and 20 nM, SAHA 500 nM
Method: Then the parasite samples were harvested and treated with 0.15% saponin to remove the RBC proteins and sonicated in 1% NP40 lysis buffer. After centrifugation at 12,000× g for 15 min, the supernatant was resuspended in a routine SDS loading buffer. Parasite proteins were separated by 10% SDS-PAGE and transferred onto PVDF membranes (Millipore). […] A2348) followed by a secondary antibody conjugated with HRP (Jackson Immuno Research Laboratories). The chemiluminescent HRP substrate Immobilon Western Kit (Millipore) was used for signal detection.

[6] = test system: asynchronous 3D7 parasites; experiment: Time- and dose-dependent parasite inhibition assay; type: cell-based, Plasmodium falciparum
Method: Asynchronous parasites (2% parasitemia, 4% hematocrit) were treated with the tested compounds at a concentration of 10, 30, 60, or 100 nM, respectively. At 3, 6, 12, and 24 h post treatment, parasitemia of each sample was detected by flow cytometry to investigate the time-dependent activity. Parasites from the same treatment were further washed to remove compounds, and parasitemia was diluted 1:40 by new RBCs into CM for an additional 4 days of culture. Parasitemia of each sample was detected by flow cytometry as described above to investigate the dose-dependent activity. DMSO was used as a blank control.

P. yoelii = experiment: In vivo efficacy of the five HDAC inhibitor hits in rodent malaria model (Fig. S1c); parameters: species or system Plasmodium yoelii in BALB/c mice; details: i.p., three mice per group
Method: Fimepinostat Pinometostat
Sodium Phenylbutyrate 500 50
Givinostat hydrochloride monohydrate
Supplementary Fig. S1 Screening of epigenetic inhibitors against blood-stage P. […]
nM and 500 nM tested compounds compared to that with the DMSO control. b The EC50 values of five compounds against Pf3D7, HepG2 and 293T cells; SIa,EC 50 HepG2/ […]
of P. yoelii in BALB/c mice. Three mice were used in each group. Parasitemia was calculated from at least 5,000 red blood cells (RBCs) by microscopy . Blank, untreated group; PPQ, piperaquine phosphate. The administration route was intraperitoneal (i.p.). The data of a and b are from three independent biological replicates in […]
(also on this page, place not known: BET BromodominHDMHMT […] HDAC SI ±3.2 ±24 ±125 % Parasitemia microscopy. a) […]

[7] = female, BALB/c, mouse, plasma, ip

Cn1cc(CNCC2CCN(c3ncc(C(=O)NO)cn3)CC2)c2ccccc21 [Quisinostat, reference compound]
EC50 (P. falciparum 3D7): 5.2 ± 0.7 nM
EC50 (P. falciparum Dd2; Plasmodium falciparum, DD2, 72 h, read-out: Antiplasmodial activity EC50, Dd2, 3-day SYBR Green I GIA, multidrug-resistant strain Dd2): 7.1 nM
EC50 (P. falciparum Dd2; read-out: Antiplasmodial activity EC50, Dd2, 3-day SYBR Green I GIA, multidrug-resistant strain Dd2): 7.09 ± 0.01 nM
EC50 at 72 h [1]: 48 nM
EC50 (HepG2 cells): 42 ± 10 nM
EC50 at 72 h [2]: 42 nM
EC50 (293T cells): 48 ± 1 nM
T1/2 in liver microsomes [3]: 13.31 min
half-life at 1 µM ([3]; mouse, liver microsomes, read-out: T1/2 in liver microsomes): 13.3 min
CL/F [4]: 27.7 L/h/kg
Cmax [4]: 88.7 ng/mL
Tmax [4]: 4.98 min
V/F [4]: 245 L/kg
plasma concentration ([4]; during 8–12 h after administration): ~ 2.5 ng/mL
AUC(0-inf) [4, 7]: 180 ng·h/mL
AUC(0-t) [4, 7]: 157 ng·h/mL
half-life [4, 7]: 368 min
IC50 (hSirt2): > 10 µM
pan-acetylation levels of parasite histone H3 [5]: greatly increased the pan-acetylation levels of parasite histone H3
parasitemia measured 4 days after 6-h treatment ([6]; 6-h treatment, washed, 1:40 dilution, 4 days culture): substantial reduction in parasitemia
asexual growth of 3D7 after 12- and 24-h treatments ([6]; 10-100 nM, parasitemia immediately after treatment): significantly inhibited the asexual growth of 3D7 parasites
clearing of P. yoelii blood-stage infections (P. yoelii): remained effective in clearing P. yoelii blood-stage infections
